From patent publication US20260272797A1, “FRAGRANCE COMPOSITION” (GIVAUDAN SA, priority 2023, published 2026)

Experiment: Impact of fragrance ingredients on scalp malodour counteractancy of 80 fragrance compositions (Example 2 protocol, statistical presence)
Conditions: Table 3; series of 80 fragrance compositions
Method: In a second set of experiments, the impact of these fragrance ingredients on the scalp malodour counteractancy of a fragrance composition was assessed. The scalp malodour counteractancy of a series of 80 fragrance compositions was assessed by performing the evaluation protocol described in Example 2. […] Ingredients that were statistically more present in fragrances having a high malodour counteractancy were assigned a positive status, whereas ingredients that were statistically more present in compositions having a low malodour counteractancy were assigned a negative status.

Row | Structure (SMILES) | Impact on scalp MOC of fragrance composition
1 | C/C=C/C(=O)C1=C(C)CCCC1(C)C [(E)-1-(2,6,6-trimethyl-1-cyclohexenyl)but-2-en-1-one] | Positive
2 | C/C=C/C(=O)C1C(C)=CCCC1(C)C (stereo not shown) [(E)-1-(2,6,6-trimethylcyclohex-2-en-1-yl)but-2-en-1-one] | Positive
3 | CCC(=O)/C=C/C1C(C)=CCCC1(C)C (stereo not shown) [(E)-1-(2,6,6-trimethylcyclohex-2-en-1-yl)pent-1-en-3-one] | Positive
4 | C/C=C/C(=O)C1=C(C)C=CCC1(C)C [(E)-1-(2,6,6-trimethylcyclohexa-1,3-dien-1-yl)but-2-en-1-one] | Positive
5 | C/C=C/c1ccc(OC)cc1 [(E)-1-methoxy-4-(prop-1-en-1-yl)benzene] | Positive
6 | C/C=C/c1ccc(O)c(OC)c1 [(E)-2-methoxy-4-(prop-1-en-1-yl)phenol] | Positive
7 | C=CC(C)(O)CC/C=C(\C)CCC=C(C)C (stereo not shown) [(E)-3,7,11-trimethyldodeca-1,6,10-trien-3-ol] | Positive
8 | CC(=O)/C(C)=C/C1=C(C)CCCC1(C)C [(E)-3-methyl-4-(2,6,6-trimethylcyclohex-1-en-1-yl)but-3-en-2-one] | Positive
9 | CC(=O)/C(C)=C/C1C(C)=CCCC1(C)C (stereo not shown) [(E)-3-methyl-4-(2,6,6-trimethylcyclohex-2-en-1-yl)but-3-en-2-one] | Positive
10 | CC1=CCC(/C=C/C(C)C(C)O)C1(C)C (stereo not shown) [(E)-3-methyl-5-(2,2,3-trimethylcyclopent-3-en-1-yl)pent-4-en-2-ol] | Positive
11 | O=CCC/C=C1\CC2CC1[C@H]1CCC[C@@H]21 (stereo partly drawn) [(E)-4-((3aS,7aS)-hexahydro-1H-4,7-methanoinden-5(6H)-ylidene)butanal] | Positive
12 | C/C=C(\CC)CCC(C)CCO (stereo not shown) [(E)-6-ethyl-3-methyloct-6-en-1-ol] | Positive
13 | CC1C/C=C/CCCCCCCC(=O)OCC1 (stereo not shown) [(E)-13-methyloxacyclopentadec-10-en-2-one] | Positive
14 | CCCCCC/C=C/C(=O)OC [(E)-methyl non-2-enoate] | Positive
15 | CC1C/C=C\CCCCCCCCCC(=O)C1 (stereo not shown) [(Z)-3-methylcyclopentadec-5-enone] | Positive
16 | O=Cc1ccc2c(c1)OCO2 [benzo[d][1,3]dioxole-5-carbaldehyde] | Positive
17 | O=C(OC1CCCCC1)c1ccccc1O [cyclohexyl 2-hydroxybenzoate] | Positive
18 | CCOC(=O)CC1(C)OCCO1 [ethyl 2-(2-methyl-1,3-dioxolan-2-yl)acetate] | Positive
19 | CCOC(=O)C(C)C [ethyl 2-methylpropanoate] | Positive
20 | CCCCCCC(=O)OCC [ethyl heptanoate] | Positive
21 | CCCCCCCC(=O)OCC [ethyl octanoate] | Positive
22 | COC(=O)c1ccccc1N [methyl 2-aminobenzoate] | Positive

Same assay, conditions: Table 4; series of 80 fragrance compositions

Row | Structure (SMILES) | Impact on scalp MOC of fragrance composition
23 | C=C(C)[C@@H]1CC=C(C)C(=O)C1 [(5R)-2-methyl-5-prop-1-en-2-ylcyclohex-2-en-1-one] | Negative
24 | C/C=C/c1ccc(OC)c(OC)c1 [(E)-1,2-dimethoxy-4-(prop-1-en-1-yl)benzene] | Negative
25 | C=CCCC(=O)/C=C/C1C(C)=CCCC1(C)C (stereo not shown) [(E)-1-(2,6,6-trimethylcyclohex-2-en-1-yl)hepta-1,6-dien-3-one] | Negative
26 | C/C(=C\C(C)C)C(C)OC(C)(C)COC(=O)C1CC1 (stereo not shown) [(E)-2-((3,5-dimethylhex-3-en-2-yl)oxy)-2-methylpropyl cyclopropanecarboxylate] | Negative
27 | CCCCCC/C(C=O)=C\c1ccccc1 [(E)-2-benzylideneoctanal] | Negative
28 | CC(=O)/C=C/C1C(C)=CCCC1(C)C (stereo not shown) [(E)-4-(2,6,6-trimethyl-1-cyclohex-2-enyl)but-3-en-2-one] | Negative
29 | CC(=O)/C=C/C1=C(C)CCCC1(C)C [(E)-4-(2,6,6-trimethylcyclohex-1-en-1-yl)but-3-en-2-one] | Negative
30 | CC(=O)OC/C=C(/C)CCC=C(C)C [(Z)-3,7-dimethylocta-2,6-dien-1-yl acetate] | Negative
31 | CC/C=C\CC1=C(C)CCC1=O [(Z)-3-methyl-2-(pent-2-en-1-yl)cyclopent-2-enone] | Negative
32 | O=C1CCC/C=C\CCCCCCCCCC1 [(Z)-cyclohexadec-5-enone] | Negative
33 | CC/C=C\CCOC(=O)c1ccccc1 [(Z)-hex-3-en-1-yl benzoate] | Negative
34 | C=CCOC(=O)COC1CCCCC1 [allyl 2-(cyclohexyloxy)acetate] | Negative
35 | CC(=O)OCc1ccccc1 [benzyl acetate] | Negative
36 | CCC(=O)OCc1ccccc1 [benzyl propanoate] | Negative
37 | CCOC(=O)C1=C(C)C=CCC1(C)C [ethyl 2,6,6-trimethylcyclohexa-1,3-diene-1-carboxylate] | Negative
38 | CCOC(=O)C1OC1(C)c1ccccc1 (stereo not shown) [ethyl methyl phenyl glycidate] | Negative
39 | CCCCCCC1C(=O)CCC1C(=O)OC (stereo not shown) [methyl 2-hexyl-3-oxocyclopentane-1-carboxylate] | Negative

Experiment: Gas-phase evaluation of each fragrance ingredient alone against model scalp malodour, MiniVAS device, panel of 5 experts
Conditions: Table 3, air flow 50 ml/min, scale of 1-5 (1=barely noticeable, 5=very strong)
Method: In a first set of experiments, the scalp malodour counteractancy of 173 fragrance ingredients was evaluated by panel of 5 experts.
The evaluation was performed in the gas phase, using a MiniVAS™ device (ex Givaudan SA). This device is a regulating means that comprises a plurality of channels adapted to convey a gas (more particularly air) through cartridges, each cartridge containing a fragrance ingredient adsorbed onto an adsorbent. The air flows coming from the different cartridges are admixed and conveyed to the user's nose through a tubing fitted with an olfactometer funnel. Thus, by opening and closing channels and maintaining these opened and closed, respectively, for predetermined times, the regulating means can determine which fragrance ingredients and how much thereof are conveyed and when, and thus alter the nature of the fragrance perceived by the user. A description of the device can be found in WO2014154909A1, page 2, line 11 to page 4, line 7, and in H. R. Gygax et al. “Evolution of Real Time Aroma Creation at Givaudan”, poster presented at the 12th Weurman Flavour Research Symposium. July 2008. Interlaken, Switzerland; DOI: 10.13140/2.1.1924.0641.
For the sake of the present evaluation, one cartridge contained the scalp malodour (in the form of a model malodour) and each fragrance ingredient was assigned to another cartridge. The malodour counteractancy of each fragrance ingredient was evaluated separately against the scalp malodour. A constant air flow rate of 50 ml/min was used for all measurements. The perceived malodour intensity, as well as the fragrance intensity, were ranked on a scale of 1-5 (1=barely noticeable, 2=weak, 3=medium, 4=strong and 5=very strong).

Row | Structure (SMILES) | MO intensity
40 | C/C=C/C(=O)C1=C(C)CCCC1(C)C [(E)-1-(2,6,6-trimethyl-1-cyclohexenyl)but-2-en-1-one] | 2.8
41 | C/C=C/C(=O)C1C(C)=CCCC1(C)C (stereo not shown) [(E)-1-(2,6,6-trimethylcyclohex-2-en-1-yl)but-2-en-1-one] | 3.7
42 | CCC(=O)/C=C/C1C(C)=CCCC1(C)C (stereo not shown) [(E)-1-(2,6,6-trimethylcyclohex-2-en-1-yl)pent-1-en-3-one] | 3
43 | C/C=C/C(=O)C1=C(C)C=CCC1(C)C [(E)-1-(2,6,6-trimethylcyclohexa-1,3-dien-1-yl)but-2-en-1-one] | 2.8
44 | C/C=C/c1ccc(OC)cc1 [(E)-1-methoxy-4-(prop-1-en-1-yl)benzene] | 4
45 | C/C=C/c1ccc(O)c(OC)c1 [(E)-2-methoxy-4-(prop-1-en-1-yl)phenol] | 4.5
46 | C=CC(C)(O)CC/C=C(\C)CCC=C(C)C (stereo not shown) [(E)-3,7,11-trimethyldodeca-1,6,10-trien-3-ol] | 1
47 | CC(=O)/C(C)=C/C1=C(C)CCCC1(C)C [(E)-3-methyl-4-(2,6,6-trimethylcyclohex-1-en-1-yl)but-3-en-2-one] | 3
48 | CC(=O)/C(C)=C/C1C(C)=CCCC1(C)C (stereo not shown) [(E)-3-methyl-4-(2,6,6-trimethylcyclohex-2-en-1-yl)but-3-en-2-one] | 3
49 | CC1=CCC(/C=C/C(C)C(C)O)C1(C)C (stereo not shown) [(E)-3-methyl-5-(2,2,3-trimethylcyclopent-3-en-1-yl)pent-4-en-2-ol] | 4.3
50 | O=CCC/C=C1\CC2CC1[C@H]1CCC[C@@H]21 (stereo partly drawn) [(E)-4-((3aS,7aS)-hexahydro-1H-4,7-methanoinden-5(6H)-ylidene)butanal] | 2.5
51 | C/C=C(\CC)CCC(C)CCO (stereo not shown) [(E)-6-ethyl-3-methyloct-6-en-1-ol] | 3
52 | CC1C/C=C/CCCCCCCC(=O)OCC1 (stereo not shown) [(E)-13-methyloxacyclopentadec-10-en-2-one] | 2
53 | CCCCCC/C=C/C(=O)OC [(E)-methyl non-2-enoate] | 1
54 | CC1C/C=C\CCCCCCCCCC(=O)C1 (stereo not shown) [(Z)-3-methylcyclopentadec-5-enone] | 2.1
55 | O=Cc1ccc2c(c1)OCO2 [benzo[d][1,3]dioxole-5-carbaldehyde] | 3
56 | O=C(OC1CCCCC1)c1ccccc1O [cyclohexyl 2-hydroxybenzoate] | 1
57 | CCOC(=O)CC1(C)OCCO1 [ethyl 2-(2-methyl-1,3-dioxolan-2-yl)acetate] | 2.3
58 | CCOC(=O)C(C)C [ethyl 2-methylpropanoate] | 1
59 | CCCCCCC(=O)OCC [ethyl heptanoate] | 1
60 | CCCCCCCC(=O)OCC [ethyl octanoate] | 1
61 | COC(=O)c1ccccc1N [methyl 2-aminobenzoate] | 4.3

Same assay, conditions: Table 3, gas phase, expert description

Row | Structure (SMILES) | Scalp MOC of ingredient alone
62 | C/C=C/C(=O)C1=C(C)CCCC1(C)C [(E)-1-(2,6,6-trimethyl-1-cyclohexenyl)but-2-en-1-one] | Coverage
63 | C=CC(C)(O)CC/C=C(\C)CCC=C(C)C (stereo not shown) [(E)-3,7,11-trimethyldodeca-1,6,10-trien-3-ol] | No effect
64 | CCCCCC/C=C/C(=O)OC [(E)-methyl non-2-enoate] | No effect
65 | O=C(OC1CCCCC1)c1ccccc1O [cyclohexyl 2-hydroxybenzoate] | No effect
66 | CCOC(=O)C(C)C [ethyl 2-methylpropanoate] | No effect
67 | CCCCCCC(=O)OCC [ethyl heptanoate] | No effect
68 | CCCCCCCC(=O)OCC [ethyl octanoate] | No effect

Same assay, conditions: Table 4, air flow 50 ml/min, scale of 1-5

Row | Structure (SMILES) | MO intensity
69 | C=C(C)[C@@H]1CC=C(C)C(=O)C1 [(5R)-2-methyl-5-prop-1-en-2-ylcyclohex-2-en-1-one] | 0
70 | C/C=C/c1ccc(OC)c(OC)c1 [(E)-1,2-dimethoxy-4-(prop-1-en-1-yl)benzene] | 3.3
71 | C=CCCC(=O)/C=C/C1C(C)=CCCC1(C)C (stereo not shown) [(E)-1-(2,6,6-trimethylcyclohex-2-en-1-yl)hepta-1,6-dien-3-one] | 3
72 | C/C(=C\C(C)C)C(C)OC(C)(C)COC(=O)C1CC1 (stereo not shown) [(E)-2-((3,5-dimethylhex-3-en-2-yl)oxy)-2-methylpropyl cyclopropanecarboxylate] | 1
73 | CCCCCC/C(C=O)=C\c1ccccc1 [(E)-2-benzylideneoctanal] | 1.2
74 | CC(=O)/C=C/C1C(C)=CCCC1(C)C (stereo not shown) [(E)-4-(2,6,6-trimethyl-1-cyclohex-2-enyl)but-3-en-2-one] | 4.5
75 | CC(=O)/C=C/C1=C(C)CCCC1(C)C [(E)-4-(2,6,6-trimethylcyclohex-1-en-1-yl)but-3-en-2-one] | 1
76 | CC(=O)OC/C=C(/C)CCC=C(C)C [(Z)-3,7-dimethylocta-2,6-dien-1-yl acetate] | 1
77 | CC/C=C\CC1=C(C)CCC1=O [(Z)-3-methyl-2-(pent-2-en-1-yl)cyclopent-2-enone] | 1.8
78 | O=C1CCC/C=C\CCCCCCCCCC1 [(Z)-cyclohexadec-5-enone] | 1
79 | CC/C=C\CCOC(=O)c1ccccc1 [(Z)-hex-3-en-1-yl benzoate] | 2
80 | C=CCOC(=O)COC1CCCCC1 [allyl 2-(cyclohexyloxy)acetate] | 4.3
81 | CC(=O)OCc1ccccc1 [benzyl acetate] | 0
82 | CCC(=O)OCc1ccccc1 [benzyl propanoate] | 1
83 | CCOC(=O)C1=C(C)C=CCC1(C)C [ethyl 2,6,6-trimethylcyclohexa-1,3-diene-1-carboxylate] | 1
84 | CCOC(=O)C1OC1(C)c1ccccc1 (stereo not shown) [ethyl methyl phenyl glycidate] | 1
85 | CCCCCCC1C(=O)CCC1C(=O)OC (stereo not shown) [methyl 2-hexyl-3-oxocyclopentane-1-carboxylate] | 1

Same assay, conditions: Table 4, gas phase, expert description

Row | Structure (SMILES) | Scalp MOC of ingredient alone
86 | C=C(C)[C@@H]1CC=C(C)C(=O)C1 [(5R)-2-methyl-5-prop-1-en-2-ylcyclohex-2-en-1-one] | Enhances MO
87 | C=CCCC(=O)/C=C/C1C(C)=CCCC1(C)C (stereo not shown) [(E)-1-(2,6,6-trimethylcyclohex-2-en-1-yl)hepta-1,6-dien-3-one] | Good coverage
88 | CC/C=C\CC1=C(C)CCC1=O [(Z)-3-methyl-2-(pent-2-en-1-yl)cyclopent-2-enone] | Low coverage
89 | O=C1CCC/C=C\CCCCCCCCCC1 [(Z)-cyclohexadec-5-enone] | Enhances MO
90 | CC/C=C\CCOC(=O)c1ccccc1 [(Z)-hex-3-en-1-yl benzoate] | Low coverage
91 | CC(=O)OCc1ccccc1 [benzyl acetate] | Enhances MO
